Source: PMC6199744, “Development of Chemical Proteomics for the Folateome and Analysis of the Kinetoplastid Folateome” (ACS Infectious Diseases, 2018)
Like-named read-outs stand apart in the source and are kept apart here.

Columns and labels:
Type in all cases: binding
[1] = target: T1, HeLa cell extract proteins (Homo sapiens, UniProt Q99832)
T1 construct: endogenous in cells; host or cells: HeLa cell extract
T1 sequence (Q99832 1-543): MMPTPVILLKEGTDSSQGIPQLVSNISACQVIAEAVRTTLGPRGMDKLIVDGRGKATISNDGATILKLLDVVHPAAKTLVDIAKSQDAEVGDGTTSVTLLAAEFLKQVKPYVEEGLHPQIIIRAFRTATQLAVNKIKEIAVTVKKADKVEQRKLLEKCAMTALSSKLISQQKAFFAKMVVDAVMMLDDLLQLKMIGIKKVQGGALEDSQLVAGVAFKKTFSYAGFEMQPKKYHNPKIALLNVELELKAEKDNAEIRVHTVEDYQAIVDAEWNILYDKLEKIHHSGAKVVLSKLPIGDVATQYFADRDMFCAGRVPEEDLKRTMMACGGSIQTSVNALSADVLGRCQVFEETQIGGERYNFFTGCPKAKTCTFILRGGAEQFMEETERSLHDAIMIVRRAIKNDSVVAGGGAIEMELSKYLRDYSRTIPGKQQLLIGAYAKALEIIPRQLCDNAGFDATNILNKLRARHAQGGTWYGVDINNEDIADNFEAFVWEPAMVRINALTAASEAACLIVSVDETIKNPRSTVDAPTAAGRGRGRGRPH

[2] = target: T2, HeLa cell extract proteins (Homo sapiens, UniProt Q13315)
T2 construct: endogenous in cells; host or cells: HeLa cell extract

[3] = target: T3, HeLa cell extract proteins (Homo sapiens, UniProt P53611)
T3 construct: endogenous in cells; host or cells: HeLa cell extract
T3 sequence (P53611 1-331): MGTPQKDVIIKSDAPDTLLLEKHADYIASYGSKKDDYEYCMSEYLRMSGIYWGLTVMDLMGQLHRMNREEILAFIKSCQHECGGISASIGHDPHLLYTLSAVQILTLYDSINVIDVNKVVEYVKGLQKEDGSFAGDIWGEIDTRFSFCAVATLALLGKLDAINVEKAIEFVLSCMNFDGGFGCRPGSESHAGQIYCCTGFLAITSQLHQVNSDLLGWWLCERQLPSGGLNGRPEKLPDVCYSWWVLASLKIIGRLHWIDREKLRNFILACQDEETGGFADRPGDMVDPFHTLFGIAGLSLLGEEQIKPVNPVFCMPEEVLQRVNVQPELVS

[4] = target: T4, HeLa cell extract proteins (Homo sapiens, UniProt P05141)
T4 construct: endogenous in cells; host or cells: HeLa cell extract
T4 sequence (P05141 1-298): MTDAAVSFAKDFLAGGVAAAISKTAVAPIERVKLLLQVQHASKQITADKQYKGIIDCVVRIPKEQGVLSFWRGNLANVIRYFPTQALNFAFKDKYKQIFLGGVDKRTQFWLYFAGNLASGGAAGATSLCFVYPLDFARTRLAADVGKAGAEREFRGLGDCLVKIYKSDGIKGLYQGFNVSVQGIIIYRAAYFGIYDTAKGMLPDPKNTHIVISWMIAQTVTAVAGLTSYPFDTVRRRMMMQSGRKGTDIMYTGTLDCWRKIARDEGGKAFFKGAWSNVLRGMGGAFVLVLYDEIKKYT

[5] = target: T5, HeLa cell extract proteins (Homo sapiens, UniProt P53618)
T5 construct: endogenous in cells; host or cells: HeLa cell extract
T5 sequence (P53618 1-953): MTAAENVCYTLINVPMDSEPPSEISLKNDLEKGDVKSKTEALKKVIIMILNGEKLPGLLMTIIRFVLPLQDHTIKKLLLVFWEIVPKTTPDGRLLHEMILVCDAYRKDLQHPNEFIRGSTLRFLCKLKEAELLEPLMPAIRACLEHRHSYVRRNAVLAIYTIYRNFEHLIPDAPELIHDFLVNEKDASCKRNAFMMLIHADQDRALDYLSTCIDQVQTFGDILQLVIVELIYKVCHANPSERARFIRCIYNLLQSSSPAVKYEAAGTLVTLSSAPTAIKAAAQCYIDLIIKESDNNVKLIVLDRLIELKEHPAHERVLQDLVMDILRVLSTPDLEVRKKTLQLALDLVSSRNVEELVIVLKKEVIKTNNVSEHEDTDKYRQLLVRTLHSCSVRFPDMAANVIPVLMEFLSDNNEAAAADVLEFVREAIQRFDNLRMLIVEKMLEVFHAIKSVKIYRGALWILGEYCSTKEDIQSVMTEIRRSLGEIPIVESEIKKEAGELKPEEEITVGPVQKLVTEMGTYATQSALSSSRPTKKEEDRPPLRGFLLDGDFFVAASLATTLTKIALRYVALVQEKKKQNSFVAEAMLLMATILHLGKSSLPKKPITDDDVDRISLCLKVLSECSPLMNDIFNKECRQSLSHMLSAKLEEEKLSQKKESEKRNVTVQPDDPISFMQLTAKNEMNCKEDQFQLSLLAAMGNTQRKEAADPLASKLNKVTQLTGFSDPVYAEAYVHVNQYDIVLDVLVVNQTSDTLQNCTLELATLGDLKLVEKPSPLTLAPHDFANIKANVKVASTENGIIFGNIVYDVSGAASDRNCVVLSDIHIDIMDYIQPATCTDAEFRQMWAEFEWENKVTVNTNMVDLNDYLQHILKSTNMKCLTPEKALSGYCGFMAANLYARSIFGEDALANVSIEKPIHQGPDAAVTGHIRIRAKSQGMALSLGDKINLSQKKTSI

[6] = target: T6, HeLa cell extract proteins (Homo sapiens, UniProt P21359)
T6 construct: endogenous in cells; host or cells: HeLa cell extract
T6 sequence (P21359 whole entry): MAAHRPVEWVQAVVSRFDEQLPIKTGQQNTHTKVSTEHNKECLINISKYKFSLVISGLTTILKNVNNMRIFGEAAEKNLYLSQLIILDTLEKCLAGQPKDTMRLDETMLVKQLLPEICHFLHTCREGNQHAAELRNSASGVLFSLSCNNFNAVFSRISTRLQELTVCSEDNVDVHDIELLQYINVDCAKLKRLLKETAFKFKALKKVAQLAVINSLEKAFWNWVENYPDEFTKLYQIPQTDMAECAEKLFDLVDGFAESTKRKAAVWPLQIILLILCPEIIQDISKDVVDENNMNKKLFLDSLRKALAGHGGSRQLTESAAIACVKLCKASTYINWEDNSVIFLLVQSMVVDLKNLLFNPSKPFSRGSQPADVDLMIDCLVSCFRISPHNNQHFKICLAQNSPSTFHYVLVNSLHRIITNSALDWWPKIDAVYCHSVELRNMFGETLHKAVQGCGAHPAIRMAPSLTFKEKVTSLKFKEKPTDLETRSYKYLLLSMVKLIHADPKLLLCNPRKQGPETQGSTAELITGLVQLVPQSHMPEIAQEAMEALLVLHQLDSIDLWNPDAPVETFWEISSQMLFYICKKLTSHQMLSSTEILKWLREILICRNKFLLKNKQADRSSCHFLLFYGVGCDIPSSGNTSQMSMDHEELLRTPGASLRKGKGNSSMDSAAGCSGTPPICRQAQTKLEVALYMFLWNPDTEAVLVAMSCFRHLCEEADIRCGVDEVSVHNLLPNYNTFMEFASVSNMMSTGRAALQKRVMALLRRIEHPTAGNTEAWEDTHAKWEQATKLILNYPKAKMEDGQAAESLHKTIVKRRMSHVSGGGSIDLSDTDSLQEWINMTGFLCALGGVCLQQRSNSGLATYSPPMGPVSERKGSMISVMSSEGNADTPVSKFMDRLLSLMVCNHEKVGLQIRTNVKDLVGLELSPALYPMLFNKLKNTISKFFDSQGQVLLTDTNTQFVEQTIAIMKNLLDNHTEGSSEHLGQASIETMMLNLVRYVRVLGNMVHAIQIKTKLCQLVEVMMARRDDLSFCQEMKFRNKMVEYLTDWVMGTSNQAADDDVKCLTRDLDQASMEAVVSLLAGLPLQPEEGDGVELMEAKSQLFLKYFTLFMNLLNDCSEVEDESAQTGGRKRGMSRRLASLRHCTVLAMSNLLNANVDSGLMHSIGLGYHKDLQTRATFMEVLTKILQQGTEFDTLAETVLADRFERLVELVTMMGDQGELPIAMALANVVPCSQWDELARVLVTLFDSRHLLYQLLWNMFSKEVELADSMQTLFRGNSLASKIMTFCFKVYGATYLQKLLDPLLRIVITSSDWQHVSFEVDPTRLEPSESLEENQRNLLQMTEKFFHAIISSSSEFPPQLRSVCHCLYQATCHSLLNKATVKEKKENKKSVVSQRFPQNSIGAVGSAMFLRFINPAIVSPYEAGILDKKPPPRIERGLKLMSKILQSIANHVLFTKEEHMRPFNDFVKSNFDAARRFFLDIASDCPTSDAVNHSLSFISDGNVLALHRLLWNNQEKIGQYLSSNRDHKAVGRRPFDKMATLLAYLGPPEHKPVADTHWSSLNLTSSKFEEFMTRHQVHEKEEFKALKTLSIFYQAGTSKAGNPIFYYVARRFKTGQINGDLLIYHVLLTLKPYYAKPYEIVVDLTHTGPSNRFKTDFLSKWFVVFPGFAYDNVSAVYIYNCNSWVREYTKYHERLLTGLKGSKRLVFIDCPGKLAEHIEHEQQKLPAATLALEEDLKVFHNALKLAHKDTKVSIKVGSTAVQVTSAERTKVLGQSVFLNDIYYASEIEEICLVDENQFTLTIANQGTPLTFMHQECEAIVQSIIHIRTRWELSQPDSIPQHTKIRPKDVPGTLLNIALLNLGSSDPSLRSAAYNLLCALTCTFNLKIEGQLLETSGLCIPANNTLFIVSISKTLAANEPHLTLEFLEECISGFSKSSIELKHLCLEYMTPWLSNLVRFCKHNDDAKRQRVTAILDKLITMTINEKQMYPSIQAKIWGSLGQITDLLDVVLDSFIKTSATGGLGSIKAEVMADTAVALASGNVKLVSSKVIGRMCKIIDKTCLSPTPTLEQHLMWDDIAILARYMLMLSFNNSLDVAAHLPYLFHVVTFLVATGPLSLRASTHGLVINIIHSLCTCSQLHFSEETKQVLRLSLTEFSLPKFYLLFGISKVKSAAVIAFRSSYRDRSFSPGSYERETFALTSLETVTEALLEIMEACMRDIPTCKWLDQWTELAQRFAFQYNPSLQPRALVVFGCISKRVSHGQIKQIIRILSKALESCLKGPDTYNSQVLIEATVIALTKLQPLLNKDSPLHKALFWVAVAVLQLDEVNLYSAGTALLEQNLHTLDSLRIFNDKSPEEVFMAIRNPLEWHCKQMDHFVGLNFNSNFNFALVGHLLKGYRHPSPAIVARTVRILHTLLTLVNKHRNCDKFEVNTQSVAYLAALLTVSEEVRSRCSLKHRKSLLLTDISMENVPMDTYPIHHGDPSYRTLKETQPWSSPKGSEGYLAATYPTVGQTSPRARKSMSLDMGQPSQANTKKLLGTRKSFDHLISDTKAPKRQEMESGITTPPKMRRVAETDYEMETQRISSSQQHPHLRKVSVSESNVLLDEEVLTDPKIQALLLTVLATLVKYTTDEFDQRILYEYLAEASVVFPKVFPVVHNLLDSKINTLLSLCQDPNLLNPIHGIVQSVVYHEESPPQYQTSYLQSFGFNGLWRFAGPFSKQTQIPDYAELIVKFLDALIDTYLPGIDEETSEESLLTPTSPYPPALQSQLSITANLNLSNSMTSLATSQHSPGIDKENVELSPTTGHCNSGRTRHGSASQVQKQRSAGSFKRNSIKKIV

[7] = target: T7, HeLa cell extract proteins (Homo sapiens, UniProt P62191)
T7 construct: endogenous in cells; host or cells: HeLa cell extract
T7 sequence (P62191 whole entry): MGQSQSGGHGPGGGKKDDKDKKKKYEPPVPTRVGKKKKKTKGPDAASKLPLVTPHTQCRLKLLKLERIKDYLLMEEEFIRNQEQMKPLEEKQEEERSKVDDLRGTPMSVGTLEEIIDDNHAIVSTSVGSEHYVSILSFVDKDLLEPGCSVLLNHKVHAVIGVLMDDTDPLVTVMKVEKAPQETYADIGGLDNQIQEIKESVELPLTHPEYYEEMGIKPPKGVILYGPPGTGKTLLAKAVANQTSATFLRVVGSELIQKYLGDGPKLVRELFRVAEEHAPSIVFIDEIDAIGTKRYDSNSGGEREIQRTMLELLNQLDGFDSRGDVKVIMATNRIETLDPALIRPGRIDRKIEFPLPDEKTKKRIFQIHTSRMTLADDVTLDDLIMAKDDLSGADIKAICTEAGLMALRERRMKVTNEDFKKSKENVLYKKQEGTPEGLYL

[8] = target: T8, HeLa cell extract proteins (Homo sapiens, UniProt P39656)
T8 construct: endogenous in cells; host or cells: HeLa cell extract
T8 sequence (P39656 43-456): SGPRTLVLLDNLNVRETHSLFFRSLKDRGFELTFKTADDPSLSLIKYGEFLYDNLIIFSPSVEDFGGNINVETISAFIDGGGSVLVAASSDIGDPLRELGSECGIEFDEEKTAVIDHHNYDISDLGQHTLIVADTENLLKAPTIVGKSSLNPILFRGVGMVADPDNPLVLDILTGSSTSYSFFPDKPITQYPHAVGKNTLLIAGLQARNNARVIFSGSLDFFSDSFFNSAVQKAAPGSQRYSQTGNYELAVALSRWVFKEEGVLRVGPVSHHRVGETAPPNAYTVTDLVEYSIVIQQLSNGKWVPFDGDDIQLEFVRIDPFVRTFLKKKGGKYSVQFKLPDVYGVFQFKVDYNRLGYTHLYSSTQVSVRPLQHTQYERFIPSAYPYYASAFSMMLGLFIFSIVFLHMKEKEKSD

[9] = target: T9, HeLa cell extract proteins (Homo sapiens, UniProt P08865)
T9 construct: endogenous in cells; host or cells: HeLa cell extract

| SMILES | fold changes relative to vehicle control ([1]; HeLa, protein CCT7) | fold changes relative to vehicle control ([2]; HeLa, protein ATM) | fold changes relative to vehicle control ([3]; HeLa, captured protein RABGGTB) | fold changes relative to vehicle control ([4]; HeLa, protein SLC25A5) | fold changes relative to vehicle control ([5]; HeLa, protein COPB1) | fold changes relative to vehicle control ([6]; HeLa, protein NF1) | fold changes relative to vehicle control ([7]; HeLa, protein PSMC1) | fold changes relative to vehicle control ([8]; HeLa, captured protein DDOST) | fold changes relative to vehicle control ([9]; HeLa, protein RPSA) | fold changes relative to vehicle control ([1]; protein CCT7, HeLa) | fold changes relative to vehicle control ([3]; protein RABGGTB, HeLa) | fold changes relative to vehicle control ([4]; captured protein SLC25A5, HeLa) | fold changes relative to vehicle control ([6]; protein NF1, HeLa) | fold changes relative to vehicle control ([7]; protein PSMC1, HeLa) | fold changes relative to vehicle control ([8]; captured protein DDOST, HeLa) | fold changes relative to vehicle control ([9]; captured protein RPSA, HeLa) | also measured |
| --- | --- | --- | --- | --- | --- | --- | --- | --- | --- | --- | --- | --- | --- | --- | --- | --- | --- |
| Nc1nc2c(c(=O)[nH]1)N(C=O)C(CNc1ccc(C(=O)N[C@@H](CCC(=O)O)C(=O)O)cc1)CN2 (stereo partly drawn) [LEU, leucovorin] | 1.01 | 0.92 | 1.01 | 0.84 | 0.87 | 0.96 | 1 | 0.8 | 0.87 | – | – | – | – | – | – | – | – |
| Nc1nc2[nH]cc(CCc3ccc(C(=O)N[C@@H](CCC(=O)O)C(=O)O)cc3)c2c(=O)[nH]1 [PTX, pemetrexed] | – | – | – | – | – | – | – | – | – | – | – | – | – | – | – | – | fold changes relative to vehicle control [1]: 1.01; fold changes relative to vehicle control [2]: 1.04; fold changes relative to vehicle control [3]: 0.97; fold changes relative to vehicle control [4]: 0.9; fold changes relative to vehicle control [5]: 0.84; fold changes relative to vehicle control [6]: 1.04; fold changes relative to vehicle control [7]: 0.92; fold changes relative to vehicle control [8]: 0.85; fold changes relative to vehicle control [9]: 0.9 |
| CCCCCCOc1ccc(Cc2cnc(N)nc2N)cc1 [compound 1] | – | 1.03 | – | – | 0.97 | – | – | – | – | 1.08 | 1.07 | 0.96 | 0.84 | 0.98 | 0.81 | 0.97 | – |
| CCCCCCOc1cccc(Cc2cnc(N)nc2N)c1 [compound 2] | – | 1.01 | – | – | 1.07 | – | – | – | – | 1.62 | 1.01 | 0.9 | 1.15 | 1.42 | 1.1 | 1.11 | – |
| Nc1nc2cccc(-c3ccccc3)c2n1Cc1ccc(Cl)c(Cl)c1 [compound 3] | – | 1.14 | – | – | 1.17 | – | – | – | – | 0.98 | 1.06 | 1.02 | 1.06 | 1 | 1.05 | 1.09 | – |
| NCCOCCOCC(=O)Nc1nc2ncc(CNc3ccc(C(=O)NC(CCC(=O)O)C(=O)O)cc3)nc2c(=O)[nH]1 (stereo not drawn) [compound 6] | 1.2 | 1.1 | 0.91 | 0.97 | 0.92 | 1.18 | 0.95 | 0.95 | 0.97 | – | – | – | – | – | – | – | – |
| NCCCNc1ccc(C(=O)NC(CCC(=O)O)C(=O)O)cc1 (stereo not drawn) [compound 7] | 1.11 | 1.09 | 1.03 | 0.96 | 0.97 | 1.11 | 0.85 | 1.07 | 0.84 | – | – | – | – | – | – | – | – |
